The record followed here is ChEMBL document CHEMBL3352027, “Pharmacologically active metabolites, combination screening and target identification-driven drug repositioning in antituberculosis drug discovery” (2014).

Values after ≈ are worked out from the molar mass of the structure shown. A value given as a limit tells only on which side of the number the result lay.

Assay type in all cases: functional
Test [1] relates to Mycolicibacterium smegmatis. Briefly: Antitubercular activity against Mycobacterium smegmatis by checkerboard assay.
Test [2] concerns Mycolicibacterium smegmatis. Nature of the test: Antitubercular activity against Mycobacterium smegmatis by checkerboard assay in presence of spectinomycin.
Test [3] relates to Mycolicibacterium smegmatis. Nature of the test: Ratio of MIC99 for Mycobacterium smegmatis to ratio of MIC99 for Mycobacterium smegmatis in presence of kanamycin.
Test [4] concerns Mycolicibacterium smegmatis. Nature of the test: Antitubercular activity against Mycobacterium smegmatis by checkerboard assay in presence of 25-desacetylrifampicin.
Test [5] concerns Mycolicibacterium smegmatis. Nature of the test: Ratio of MIC99 for Mycobacterium smegmatis to ratio of MIC99 for Mycobacterium smegmatis in presence of 25-desacetylrifampicin.
Test [6] deals with Mycolicibacterium smegmatis. Nature of the test: Antitubercular activity against Mycobacterium smegmatis by checkerboard assay in presence of rifampicin.
Test [7] concerns Mycolicibacterium smegmatis. Briefly: Antitubercular activity against Mycobacterium smegmatis by checkerboard assay in presence of kanamycin.
The subject of test [8] is Mycobacterium tuberculosis. Briefly: Antitubercular activity against drug-sensitive Mycobacterium tuberculosis.
The test system of test [9] is Mycolicibacterium smegmatis. Briefly: Ratio of MIC99 for Mycobacterium smegmatis to ratio of MIC99 for Mycobacterium smegmatis in presence of chlorpromazine.
Test [10] deals with Mycolicibacterium smegmatis. Nature of the test: Antitubercular activity against Mycobacterium smegmatis by checkerboard assay in presence of chlorpromazine. To be noted: for MIC99: Mycolicibacterium smegmatis.
The subject of test [11] is Mycolicibacterium smegmatis. Nature of the test: Ratio of MIC99 for Mycobacterium smegmatis to ratio of MIC99 for Mycobacterium smegmatis in presence of 7-hydroxy chlorpromazine.
Test [12] concerns Mycolicibacterium smegmatis. Briefly: Antitubercular activity against Mycobacterium smegmatis by checkerboard assay in presence of 7-hydroxy chlorpromazine. To be noted: for MIC99: Mycolicibacterium smegmatis.
Test [13] relates to Mycolicibacterium smegmatis. Nature of the test: Ratio of MIC99 for Mycobacterium smegmatis to ratio of MIC99 for Mycobacterium smegmatis in presence of chlorpromazine-N-oxide.
In test [14] the test system is Mycolicibacterium smegmatis. Nature of the test: Antitubercular activity against Mycobacterium smegmatis by checkerboard assay in presence of chlorpromazine-N-oxide. To be noted: for MIC99: Mycolicibacterium smegmatis.
Test [15] has as its system Mycolicibacterium smegmatis. Briefly: Ratio of MIC99 for Mycobacterium smegmatis to ratio of MIC99 for Mycobacterium smegmatis in presence of nor-chlorpromazine.
The subject of test [16] is Mycolicibacterium smegmatis. Briefly: Antitubercular activity against Mycobacterium smegmatis by checkerboard assay in presence of nor-chlorpromazine. As to conditions: for MIC99: Mycolicibacterium smegmatis.
Test [17] concerns Mycolicibacterium smegmatis. Nature of the test: Antitubercular activity against Mycobacterium smegmatis assessed as reduction in MIC99 by checkerboard assay in presence of chlorpromazine sulfoxide relative to control.
The test system of test [18] is Mycolicibacterium smegmatis. Briefly: Antitubercular activity against Mycobacterium smegmatis by checkerboard assay in presence of chlorpromazine sulfoxide.
The subject of test [19] is Mycolicibacterium smegmatis. Briefly: Antitubercular activity against Mycobacterium smegmatis by checkerboard assay in presence of chlorpromazine-N-S-dioxide.
Test [20] concerns Mycolicibacterium smegmatis. Briefly: Antitubercular activity against Mycobacterium smegmatis assessed as reduction in MIC99 by checkerboard assay in presence of chlorpromazine-N-S-dioxide relative to control.
Test [21] deals with Mycolicibacterium smegmatis. Briefly: Antitubercular activity against Mycobacterium smegmatis by checkerboard assay in presence of nor-chlorpromazine sulfoxide.
The subject of test [22] is Mycolicibacterium smegmatis. Briefly: Antitubercular activity against Mycobacterium smegmatis assessed as reduction in MIC99 by checkerboard assay in presence of nor-chlorpromazine sulfoxide relative to control.

Regarding `CNCCCN1c2ccccc2[S+]([O-])c2ccc(Cl)cc21` (configuration not stated), the MIC99 in [1] is more than 2080 µM; in [2] it was 64.9 µM.
As to `C[N+](C)([O-])CCCN1c2ccccc2Sc2ccc(Cl)cc21`, the Ratio in test [3] and in test [5] was 0.5 each time. The MIC99 was found to be 498 µM in [4]; 995 µM in test [1]; 498 µM in test [6]; 498 µM in [7]; 124 µM in test [2].
For the compound `C[N+](C)([O-])CCCN1c2ccccc2[S+]([O-])c2ccc(Cl)cc21` (configuration not stated), the MIC99 in test [1] is more than 1900 µM; in [7], 475 µM; in test [2] it was 1900 µM.
`CN[C@@H]1[C@H](O)[C@H](NC)[C@H]2O[C@]3(O)[C@H](O[C@@H]2[C@H]1O)O[C@H](C)C[C@H]3NC(=O)Cc1ccccn1` gave a minimal inhibitory concentration (MIC) in test [8] of 0.8 mg/L (≈ 1.77 µM).
The same measure, in the same setting: next, `CN[C@@H]1[C@H](O)[C@H](NC)[C@H]2O[C@]3(O)[C@H](O[C@@H]2[C@H]1O)O[C@H](C)C[C@H]3NC(=O)Cc1ccccc1`: 0.8 mg/L (≈ 1.77 µM); `CN[C@@H]1[C@H](O)[C@H](NC)[C@H]2O[C@]3(O)[C@H](O[C@@H]2[C@H]1O)O[C@H](C)C[C@H]3NC(=O)Cc1ccc(F)cn1`: 0.8 mg/L (≈ 1.7 µM).
Same read-out and setting: next, `CN[C@@H]1[C@H](O)[C@H](NC)[C@H]2O[C@]3(O)[C@H](O[C@@H]2[C@H]1O)O[C@H](C)C[C@H]3NC(=O)Cc1ccc(Cl)cn1`: 0.8 mg/L (≈ 1.64 µM).
On the same count and under the same terms, as for `CN[C@@H]1[C@H](O)[C@H](NC)[C@H]2O[C@]3(O)[C@H](O[C@@H]2[C@H]1O)O[C@H](C)C[C@H]3NC(=O)CNC(C)(C)C`, the figure is 0.8 mg/L (≈ 1.79 µM).
In test [8], `CN[C@@H]1[C@H](O)[C@H](NC)[C@H]2O[C@]3(O)[C@H](O[C@@H]2[C@H]1O)O[C@H](C)C[C@H]3NC(=O)Cc1cscn1` displayed a minimal inhibitory concentration (MIC) of 0.8 mg/L (≈ 1.74 µM).
On the same count and under the same terms, next, `CN[C@@H]1[C@H](O)[C@H](NC)[C@H]2O[C@]3(O)[C@H](O[C@@H]2[C@H]1O)O[C@H](C)C[C@H]3NC(=O)Cc1cc(Cl)ccn1`: 0.8 mg/L (≈ 1.64 µM).
As for `CN(C)CCCN1c2ccc(O)cc2Sc2ccc(Cl)cc21` [7-HYDROXYCHLORPROMAZINE], the Ratio in test [9] and in test [5] was 0.5 in each case. Moreover, the MIC99 was found to be 62.2 µM in test [4]; 62.2 µM in [10]; 62.2 µM in test [1]; 31.1 µM in [6]; 31.1 µM in [7]; 15.6 µM in test [2].
In the case of `CN(C)CCCN1c2ccccc2[S+]([O-])c2ccc(Cl)cc21` (configuration not stated) [CHLOROPROMAZINE SULFOXIDE], the MIC99 is more than 1990 µM in test [1], 1990 µM in [7] and 1990 µM in test [2].
With `CN(C)CCCN1c2ccccc2Sc2ccc(Cl)cc21` [CHLORPROMAZINE], the Ratio in test [3] came to 0.5; in test [11], 0.25. In addition, the MIC99 in test [4] came out at 29.3 µM; in test [1], 117 µM; in [6] it was 58.6 µM; in [7], 58.6 µM; in test [12] it was 29.3 µM; in [2] it was 29.3 µM.
For the compound `CO[C@H]1/C=C/O[C@@]2(C)Oc3c(C)c(O)c4c(O)c(c(/C=N/N5CCN(C)CC5)c(O)c4c3C2=O)NC(=O)/C(C)=C\C=C\[C@H](C)[C@H](O)[C@@H](C)[C@@H](O)[C@@H](C)[C@H](O)[C@@H]1C` [DESACETYLRIFAMPIN], the Ratio in [13] was found to be 0.252; in test [9], 0.25; in test [11], 0.248; in test [15], 0.252. The “fractional inhibitory concentration index (FICI)” value was 0.5 in test [10], 0.75 in [14], 0.5 in [16] and 0.75 in test [12]. The MIC99 in test [10] came out at 1.33 µM; in [1] it was 5.33 µM; in test [14], 0.67 µM; in test [16] it was 0.67 µM; in test [12], 0.33 µM.
In the case of `NC[C@H]1O[C@H](O[C@H]2[C@H](O)[C@@H](O[C@H]3O[C@H](CO)[C@@H](O)[C@H](N)[C@H]3O)[C@H](N)C[C@@H]2N)[C@H](O)[C@@H](O)[C@@H]1O` [KANAMYCIN], the Ratio in [13] is reported as 0.497; in [9], 0.5; in [11], 0.249; in test [15], 0.249. In addition, the “fold change (FC)” value in test [17] and in test [20] was 2 in each case. For the same compound, the “fractional inhibitory concentration index (FICI)” value was 1 in test [10], 1 in test [14], 0.5 in test [16] and 0.5 in test [12]. The MIC99 in [10] was 3.57 µM; in test [18] it was 0.89 µM; in test [1], 7.16 µM; in [14] it was 0.89 µM; in test [19], 0.89 µM; in [16], 0.89 µM. Moreover, the MIC99 in [12] was 0.89 µM.
As for `CNCCCN1c2ccccc2Sc2ccc(Cl)cc21` [NOR1-CHLORPROMAZINE], the Ratio in test [3] and in test [5] was 0.25 in each case. In addition, the MIC99 in test [4] amounted to 34.2 µM; in test [1], 137 µM; in [6] it was 34.2 µM; in [7], 34.2 µM; in test [2] it was 34.2 µM.
On to `CO[C@H]1/C=C/O[C@@]2(C)Oc3c(C)c(O)c4c(O)c(c(/C=N/N5CCN(C)CC5)c(O)c4c3C2=O)NC(=O)/C(C)=C\C=C\[C@H](C)[C@H](O)[C@@H](C)[C@@H](O)[C@@H](C)[C@H](OC(C)=O)[C@@H]1C` [RIFAMPIN], for which the Ratio is 0.5 in test [13], 0.126 in test [9], 0.126 in [11] and 0.254 in test [15]. Besides, the “fractional inhibitory concentration index (FICI)” value in test [10] amounted to 0.63; in test [14] it was 1; in test [16] it was 0.5; in [12] it was 0.63. For the same compound, the MIC99 in test [10] came to 0.2 µM; in [1] it was 2.53 µM; in [14] it was 0.63 µM; in [16], 0.32 µM; in test [12] it was 0.32 µM.
With `CN[C@@H]1[C@H](O)[C@H](NC)[C@H]2O[C@@]3(O)C(=O)C[C@@H](C)O[C@H]3O[C@@H]2[C@H]1O` [SPECTINOMYCIN], the Ratio in test [13] stood at 0.5; in test [9], 0.062; in [11], 0.062; in test [15], 0.062. The “fold change (FC)” value in test [17] is listed as 16; in test [20], 2; in test [22], 4. Further, the “fractional inhibitory concentration index (FICI)” value in test [10] is 0.31; in test [14], 0.63; in test [16], 0.31; in [12] it was 0.19. Besides, the MIC99 in [10] turned out to be 5.25 µM; in test [18] it was 10.5 µM; in [1], 84.1 µM; in test [14], 84.1 µM; in [21], 21 µM; in test [19], 42 µM. In addition, the MIC99 in [16] and in test [12] was 5.25 µM each time.

Usually MIC99 stands for the lowest concentration that inhibits either 99% of growth or 99% of the strains tested, depending on the study. One may read the MIC as the least concentration at which growth counts as inhibited.
